Test results from patent US20240165043A1, “COMPOSITIONS FOR THE TREATMENT OF A DISEASE OF THE URINARY TRACT AND TREATMENT OF A DISEASE INVOLVING THE INTRACELLULAR DELIVERY OF THE PARTICLE OR A MEDICAMENT CONTAINED THEREIN” (UCL BUSINESS LTD, priority 2018, published 2024).

Assays:
[1] = system: HBLAK-derived bladder organoids; experiment: Cell toxicity assay (LDH release); type: cell-based, human; settings: CapFuran 2 mg/ml; equivalent free nitrofurantoin 200 mg/ml as printed; 60 minutes; N=6
Description: A colorimetric […] (LDH) assay kit (Thermo Scientific) was used to measure potential cell damage from CapFuran or nitrofurantoin. The procedure was carried out as directed by the manufacturer. HBLAK-derived bladder organoids were grown for 14 days then exposed to 1000 μl of culture media (control) or 1000 μl of culture media containing CapFuran 1 mg/ml; CapFuran 2 mg/ml; 100 μg/ml unencapsulated nitrofurantoin; 200 μg/ml Nitrofurantoin; 100 μl of 10× lysis buffer (maximum LDH control); or culture medium containing 10% ultra-pure water (to measure spontaneous LDH release). Experiments were carried out in triplicates. All organoids were subsequently incubated for 60 minutes at […] in 5% CO2. After incubation, 50 μl of medium from the apical chamber of each treated organoid was transferred to 3 wells of a flat-bottomed […] (Corning). […] To quantify the amount of LDH released, the 96 well plate was read using a colorimetric sphectrophotometer (Biochrom EZ Read 400) at an absorbance of 492 nm and 650 nm. Microsoft Excel was used to subtract the background reading from the LDH reading before calculating cytotoxicity in % using the following formula: % Cytotoxicity=Treatment associated LDH release−Spontaneous LDH release×100 Maximum LDH activity−Spontaneous LDH release

[2] = system: human urothelial organoid model; experiment: Cellular uptake of cargo, three-dimensional bladder organoid; type: cell-based; settings: two hours of treatment; free FITC at equivalent amount (14 ug/mL)
Description: The three-dimensional bladder organoid model has been described (Horsley et al, 2017, https://doi.org/10.1101/152033). Briefly, organoids were created as follows. In preparation for organotypic culture, previously frozen cells were thawed and expanded on 9 cm culture dishes as above. Once 70-80% confluent, the cells were washed briefly with calcium- and magnesium-free phosphate buffered saline (PBS, Sigma-Aldrich) and incubated at 37° C. in ˜3 ml of pre-warmed Accutase solution for 2-5 min. The dishes were lightly tapped and detached cells re-suspended in 7 ml of warm CnT-Prime. After centrifugation at 200×g for 5 min, the supernatant was removed and the pellet re-suspended in fresh CnT-Prime. This cell suspension was counted whilst allowing the cells to equilibrate for 3 min at room temperature. […]
The 3D culture inserts were incubated for 3-5 days until 100% confluent. Confluency was determined through the fluorescent staining of 1 insert and visualisation under epi-fluorescence microscopy (see section below). […]
(§1) We performed epi-fluorescence microscopy on an Olympus CX-41 upright microscope, and confocal laser scanning microscopy on Leica SP5 and SP2 microscopes. […] For both still and live imaging, images were processed and analysed using Infinity Capture and Analyze V6.2.0, ImageJ 1.50 h 50 and the Leica Application Suite, Advanced Fluorescence 3.1.0 build 8587 Software.

[3] = system: human bladder epithelial cells (HBLAK); experiment: Cellular uptake of cargo, two-dimensional monolayer; type: cell-based; settings: free FITC at 2.5 mg/mL
Excerpt: Commercially available human bladder epithelial cells (HBLAK, CelINTec), which are a spontaneously immortalised, non-transformed derivative of progenitor cells that retain the ability to differentiate, were supplied in frozen aliquots containing ˜5×10^5 cells at passage 2 and ˜0.5×10^5 at passage 25 respectively. The progenitor cells had been isolated from bladder trigone biopsies from male patients undergoing surgery for benign prostatic hyperplasia. HBLAK cells were used up until passage 40-50.
Thawed cells were seeded (˜300 cell clumps/cm^2) into pre-warmed and equilibrated low-calcium, high-bovine pituitary extract, primary epithelial medium (CnT-Prime, Cell N Tec) in 9 cm polystyrene dishes and incubated at 37° C. in a humidified incubator under 5% CO2. Culture medium was replaced after overnight incubation to remove residual dimethyl sulfoxide (DMSO). Antibiotics were not added to culture medium at any point due to adverse effects on cytodifferentiation, metabolism and morphology. […]
as §1

O=C1CN(/N=C/c2ccc([N+](=O)[O-])o2)C(=O)N1 [nitrofurantoin]
Cytotoxicity (LDH release), mean [1]: 6.60%

fluorescein isothiocyanate [free FITC]
FITC penetration through cell layers [2]: negligible penetration | FITC staining of cells by free diffusion [3]: faint green staining to all cells
